Data: US11660331B2, “Heroin vaccine” (THE SCRIPPS RESEARCH INSTITUTE, priority 2017, dated 2023)

Tested on: anti-heroin polyclonal antibodies from Group G6
Experiment: SPR competitive binding assay, Her-BSA-loaded sensor chip (Biacore 3000)
Design: species or system mouse
Settings: sera from Group G6 (vaccine stored as liquid at RT for 30 days)

CN1CC[C@]23c4c5ccc(O)c4O[C@H]2[C@@H](O)C=C[C@H]3[C@H]1C5 [morphine]
cross-reactivity to the polyclonal antibodies: low cross-reactivity
